The values that follow come from the supplement of paper PMC7224384.

Test [1] has as its system MDA-MB-453. The test can be described thus: drug sensitivity score (DSS), in combination with BLU9931 (DSS (weighted AUC score)); higher = more sensitive (stronger viability decrease); extreme values may be limits of the assay. To be noted: BLU9931 100 nM; 72 h. The method in brief:
(§1)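 Compounds from the FIMM Oncology set were predispensed in singlicate at five 10-fold dilutions (10,000-fold range) on 384-well plates. Each well then received 2000 MDA-MB-453 cells in medium with or without an FGFR4 inhibitor (100 nM final) and was kept at 37 °C, 5% CO2. Cellular ATP was read with CellTiterGlo 2.0 after 72 h and normalised per plate to percent viability from control wells. The drug sensitivity score is a weighted area under a four-parameter logistic fit.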

In test [2] the test system is MDA-MB-453. The test can be described thus: drug sensitivity score (DSS), single agent (DSS (weighted AUC score)); higher = more sensitive (stronger viability decrease); extreme values may be limits of the assay. To be noted: BLU9931 0 nM; 72 h. A digest of the protocol: as §1

The structures appear in SMILES notation.

Consider `CC(C)(C#N)c1cc(Cn2cncn2)cc(C(C)(C)C#N)c1` [Anastrozole], for which the drug sensitivity score in the test with MDA-MB-453 [1] and in the test on MDA-MB-453 [2] was 0 throughout.

For the compound `CC(C)C[C@H](NC(=O)[C@@H](COC(C)(C)C)NC(=O)[C@H](Cc1ccc(O)cc1)NC(=O)[C@H](CO)NC(=O)[C@H](Cc1c[nH]c2ccccc12)NC(=O)[C@H](Cc1cnc[nH]1)NC(=O)[C@@H]1CCC(=O)N1)C(=O)N[C@@H](CCCNC(=N)N)C(=O)N1CCC[C@H]1C(=O)NNC(N)=O` [Goserelin], the drug sensitivity score in the test on MDA-MB-453 [1] and in the test with MDA-MB-453 [2] was 0 in each case.

Regarding `Cc1cc([C@@H](C)Nc2ccccc2C(=O)O)c2nc(N3CCOCC3)cc(=O)n2c1` [AZD-6482], the drug sensitivity score with MDA-MB-453 [1] worked out at 7.4; with MDA-MB-453 [2], 7.5.

Turning to `CCN(CC)CCCC(C)Nc1ccnc2cc(Cl)ccc12` (centres undefined) [Chloroquine], the drug sensitivity score worked out at 7 in the test with MDA-MB-453 [1] and 7.6 in the test on MDA-MB-453 [2].

As to `CC[C@@H]1CN(C(=O)NCC(F)(F)F)C[C@@H]1c1cnc2cnc3[nH]ccc3n12` [Upadacitinib], the drug sensitivity score with MDA-MB-453 [1] was 0; in the test on MDA-MB-453 [2], 0.9.

With `CC(=O)O[C@]1(C(C)=O)CC[C@H]2[C@@H]3C=C(C)C4=CC(=O)CC[C@]4(C)[C@H]3CC[C@@]21C` [Megestrol acetate], the drug sensitivity score was 0 in the test with MDA-MB-453 [1] and 2.2 in the test on MDA-MB-453 [2].

For the compound `N#Cc1ccnc(N2C(=O)CC[C@H]2C(=O)N(c2cncc(F)c2)[C@H](C(=O)NC2CC(F)(F)C2)c2ccccc2Cl)c1` [Ivosidenib], the drug sensitivity score with MDA-MB-453 [1] and with MDA-MB-453 [2] was 0 in each case.

As for `CNC(=O)c1ccc(C)c(-n2c(C)cc(OCc3ccc(F)cc3F)c(Br)c2=O)c1`, the values for the drug sensitivity score with MDA-MB-453 [1] and in the test with MDA-MB-453 [2] were 0 and 0.1, respectively.

In the case of `Cc1cn(-c2cc(NC(=O)c3ccc(C)c(Nc4nccc(-c5cccnc5)n4)c3)cc(C(F)(F)F)c2)cn1` [Nilotinib], the drug sensitivity score in the test on MDA-MB-453 [1] amounted to 1.5; in the test on MDA-MB-453 [2], 1.7.

In the case of `C[C@H](Nc1ncnc2nc[nH]c12)c1cc2cccc(Cl)c2c(=O)n1-c1ccccc1` [Duvelisib], the drug sensitivity score in the test with MDA-MB-453 [1] and with MDA-MB-453 [2] was 0 each time.

Regarding `Nc1cccc2c1C(=O)N(C1CCC(=O)NC1=O)C2=O` (centres undefined) [Pomalidomide], the drug sensitivity score in the test on MDA-MB-453 [1] and in the test with MDA-MB-453 [2] was 0 in each case.

For `Oc1ncnc2[nH]ncc12` [Allopurinol], the drug sensitivity score amounted to 0.3 in the test on MDA-MB-453 [1] and 0.1 in the test with MDA-MB-453 [2].

Turning to `CC[C@@H]1C(=O)N(C)c2cnc(Nc3ccc(C(=O)N[C@H]4CC[C@H](N5CCN(CC6CC6)CC5)CC4)cc3OC)nc2N1C(C)C` [Volasertib], the drug sensitivity score in the test with MDA-MB-453 [1] was found to be 7.8; in the test with MDA-MB-453 [2] it was 10.5.

`COc1ccc(COc2cc3oc(=O)c4cc(C(C)O)ccc4c3cc2OC)cc1` (centres undefined) [Palomid-529]: the drug sensitivity score turned out to be 0 in the test with MDA-MB-453 [1] and 2 with MDA-MB-453 [2].

Consider `O=c1ncn2nc(Sc3ccc(F)cc3F)ccc2c1-c1c(Cl)cccc1Cl` [Neflamapimod], for which the drug sensitivity score in the test with MDA-MB-453 [1] and with MDA-MB-453 [2] was 0 each time.

Consider `CC(C)C[C@H](NC(=O)[C@H](Cc1ccccc1)NC(=O)c1cnccn1)B(O)O` [Bortezomib], for which the drug sensitivity score with MDA-MB-453 [1] is 20.1; in the test with MDA-MB-453 [2], 21.3.

As to `Oc1ccc2c(c1)CC[C@H](c1ccccc1)[C@@H]2c1ccc(OCCN2CCCC2)cc1` [Lasofoxifene], the drug sensitivity score in the test on MDA-MB-453 [1] came to 0.2; with MDA-MB-453 [2] it was 0.7.

With `CNC(=O)c1ccc2cc([C@@]3(O)CCn4cncc43)ccc2c1` [Orteronel], the drug sensitivity score with MDA-MB-453 [1] and in the test on MDA-MB-453 [2] was 0 in each case.

For `COc1cc(C)[nH]c(=O)c1CNC(=O)c1c(C)n([C@H](C)C2CCOCC2)c2ccccc12` [CPI-360], the drug sensitivity score in the test with MDA-MB-453 [1] and in the test on MDA-MB-453 [2] was 0 each time.

On to `COc1cc(N2CCC(N3CCN(C)CC3)CC2)ccc1Nc1ncnc(Nc2ccccc2S(=O)(=O)C(C)C)n1` [ASP3026], for which the drug sensitivity score is 0.3 in the test on MDA-MB-453 [1] and 0.8 in the test on MDA-MB-453 [2].

For `C=CC(=O)Nc1cccc(Oc2nc(Nc3ccc(N4CCN(C)CC4)cc3)nc3ccsc23)c1` [Olmutinib], the drug sensitivity score in the test with MDA-MB-453 [1] and in the test with MDA-MB-453 [2] was 0.7 in each case.

Take `CN(C)Cc1c(C(=O)NCCOc2ccc(C(=O)NO)cc2)oc2ccccc12` [Abexinostat]: the results for the drug sensitivity score in the test with MDA-MB-453 [1] and with MDA-MB-453 [2] were 22.3 and 22.6, respectively.

Regarding `Cc1ccc(C(=O)Nc2cccc(C(F)(F)F)c2)cc1Nc1nc(-c2cccnc2)nc2c1cnn2C` [NVP-BHG712], the drug sensitivity score was 1.2 in the test on MDA-MB-453 [1] and 1.9 in the test with MDA-MB-453 [2].

Turning to `CNC(=O)c1cc(Oc2ccc(NC(=O)Nc3ccc(Cl)c(C(F)(F)F)c3)cc2)ccn1` [Sorafenib], the drug sensitivity score with MDA-MB-453 [1] and with MDA-MB-453 [2] was 0 throughout.

For the compound `CN1CCN(C2CCC(n3cc(-c4ccc(Oc5ccccc5)cc4)c4c(N)ncnc43)CC2)CC1` (centres undefined), the drug sensitivity score in the test with MDA-MB-453 [1] is 9.3; in the test on MDA-MB-453 [2], 8.4.

For `CN(C)C(=O)c1cc2cnc(Nc3ccc(N4CCNCC4)cn3)nc2n1C1CCCC1` [Ribociclib], the drug sensitivity score in the test on MDA-MB-453 [1] is 3.6; in the test with MDA-MB-453 [2] it was 1.4.

For `Cn1cc(C[C@@H](N)C(=O)O)c2ccccc21` [1-methyl-D-tryptophan], the drug sensitivity score was determined as 0 in the test with MDA-MB-453 [1] and 0.2 with MDA-MB-453 [2].

Regarding `O=C(c1ccc(F)c(F)c1Nc1ccc(I)cc1F)N1CC(O)([C@@H]2CCCCN2)C1` [Cobimetinib], the values for the drug sensitivity score with MDA-MB-453 [1] and in the test with MDA-MB-453 [2] were 0.3 and 1.7, respectively.

With `O=C(O)CNC(=O)c1c(O)c2ccccc2n(Cc2ccccc2)c1=O` [IOX-2], the drug sensitivity score with MDA-MB-453 [1] and in the test on MDA-MB-453 [2] was 0 each time.

In the case of `Cc1sc2c(c1C)C(c1ccc(Cl)cc1)=N[C@@H](CC(=O)Nc1ccc(OCCOCCOCCOCCNc3cccc4c3C(=O)N(C3CCC(=O)NC3=O)C4=O)cc1)c1nnc(C)n1-2` (some centres undefined) [ARV-825], the drug sensitivity score with MDA-MB-453 [1] stood at 10.7; with MDA-MB-453 [2] it was 10.1.

For `CCN1CCN(Cc2ccc(Nc3ncc(F)c(-c4cc(F)c5nc(C)n(C(C)C)c5c4)n3)nc2)CC1` [Abemaciclib], the drug sensitivity score with MDA-MB-453 [1] worked out at 7.8; with MDA-MB-453 [2] it was 4.1.

In the case of `CC(C)(O)CNc1nc(Nc2ccnc(C(F)(F)F)c2)nc(-c2cccc(C(F)(F)F)n2)n1` [Enasidenib], the values for the drug sensitivity score in the test with MDA-MB-453 [1] and with MDA-MB-453 [2] were 0.1 and 0, respectively.

For `Cc1cc2c(F)c(Oc3ncnn4cc(OC[C@@H](C)O)c(C)c34)ccc2[nH]1` [Brivanib], the drug sensitivity score in the test on MDA-MB-453 [1] and in the test with MDA-MB-453 [2] was 0 throughout.

Consider `O=C(c1cccc(Cl)c1F)N1CCN(Cc2cccc(Nc3nccs3)n2)CC1` [MK-8745], for which the drug sensitivity score was 2.4 in the test with MDA-MB-453 [1] and 5.4 with MDA-MB-453 [2].

Turning to `CC#CC(=O)N1CCC[C@H]1c1nc(-c2ccc(C(=O)Nc3ccccn3)cc2)c2c(N)nccn12` [Acalabrutinib], the drug sensitivity score was found to be 2.4 in the test on MDA-MB-453 [1] and 4.2 with MDA-MB-453 [2].

Consider `Cc1c2oc3c(C)ccc(C(=O)N[C@@H]4C(=O)N[C@H](C(C)C)C(=O)N5CCC[C@H]5C(=O)N(C)CC(=O)N(C)[C@@H](C(C)C)C(=O)O[C@@H]4C)c3nc-2c(C(=O)N[C@@H]2C(=O)N[C@H](C(C)C)C(=O)N3CCC[C@H]3C(=O)N(C)CC(=O)N(C)[C@@H](C(C)C)C(=O)O[C@@H]2C)c(N)c1=O` [Dactinomycin], for which the values for the drug sensitivity score with MDA-MB-453 [1] and with MDA-MB-453 [2] were 22 and 21, respectively.

Consider `Cc1cc(Nc2ncc(Cl)c(Nc3ccccc3S(=O)(=O)C(C)C)n2)c(OC(C)C)cc1C1CCNCC1` [Ceritinib], for which the drug sensitivity score was determined as 1.9 in the test on MDA-MB-453 [1] and 1.8 in the test with MDA-MB-453 [2].

Consider `COc1ccc(S(=O)(=O)Nc2cccnc2Nc2ccc(O)cc2)cc1` [ABT-751], for which the drug sensitivity score stood at 7.9 in the test with MDA-MB-453 [1] and 7.4 in the test with MDA-MB-453 [2].

As for `C[C@@H]1CCN(C(=O)CC#N)C[C@@H]1N(C)c1ncnc2[nH]ccc12` [Tofacitinib], the drug sensitivity score in the test on MDA-MB-453 [1] and in the test with MDA-MB-453 [2] was 0 in each case.

`NS(=O)(=O)NCCNc1nonc1/C(=N/O)Nc1ccc(F)c(Br)c1` [Epacadostat]: the drug sensitivity score with MDA-MB-453 [1] and in the test on MDA-MB-453 [2] was 0 each time.

Take `NS(=O)(=O)OC[C@@H]1C[C@@H](n2ccc3c(N[C@H]4CCc5ccccc54)ncnc32)C[C@@H]1O` [Pevonedistat]: the drug sensitivity score with MDA-MB-453 [1] amounted to 3.3; in the test with MDA-MB-453 [2], 7.

Turning to `COCC1(CO)C(=O)C2CCN1CC2` (centres undefined) [APR-246], the drug sensitivity score in the test on MDA-MB-453 [1] amounted to 0.4; in the test on MDA-MB-453 [2], 0.

For the compound `CC(C)N(CCCNC(=O)Nc1ccc(C(C)(C)C)cc1)C[C@H]1O[C@@H](n2cc(Br)c3c(N)ncnc32)[C@H](O)[C@@H]1O` [SGC0946], the results for the drug sensitivity score with MDA-MB-453 [1] and in the test on MDA-MB-453 [2] were 0.1 and 0.9, respectively.

Turning to `CCC(C)(C)C(=O)O[C@H]1C[C@@H](C)C=C2C=C[C@H](C)[C@H](CC[C@@H]3C[C@@H](O)CC(=O)O3)[C@H]21` [Simvastatin], the drug sensitivity score in the test with MDA-MB-453 [1] is 0.1; with MDA-MB-453 [2], 0.

For `O=C(Nc1cc(Oc2cc(F)c(NC(=O)C3(C(=O)Nc4ccc(F)cc4)CC3)cc2F)ccn1)C1CC1` [Altiratinib], the figures for the drug sensitivity score in the test on MDA-MB-453 [1] and in the test with MDA-MB-453 [2] were 3.5 and 7.1, respectively.

As to `Nc1nc2[nH]cc(CCc3ccc(C(=O)N[C@@H](CCC(=O)O)C(=O)O)cc3)c2c(=O)[nH]1` [Pemetrexed], the drug sensitivity score in the test with MDA-MB-453 [1] was 1.8; in the test on MDA-MB-453 [2], 5.4.

As to `COc1c(OCCCN2CCOCC2)ccc2c1N=C(NC(=O)c1cnc(N)nc1)N1CCN=C21` [Copanlisib], the drug sensitivity score in the test with MDA-MB-453 [1] worked out at 23.4; with MDA-MB-453 [2], 22.4.
